Blank lines part the entries; values can stand above or below the compound they belong to.
What was measured:
Assay type in all cases: biochemical, Acremonium thermophilum
[1] = tested on: T1, AtBG3; assay: glucose release, hexokinase/G6PDH assay; fit with transglycosylation; conditions: 25 °C, pH 5.0, 50 mM sodium acetate; hydrolysis constant, substrate inhibition by transglycosylation; read-out: KM(h)(mM)^a / AtBG3
T1 construct: secreted enzyme, heterologously expressed in Trichoderma reesei lacking four major cellulases; gel filtration; 101 kDa

[2] = target: T1, AtBG3; assay: inhibition of MUG hydrolysis, fluorescence; conditions: 25 °C, pH 5.0, 2.5 μM MUG; IC50 at [S] << KM taken as Ki; competitive inhibition assumed; read-out: AtBG3^b
Text: inhibition of MUG hydrolysis, fluorescence on AtBG3

[3] = tested on: T1, AtBG3; assay: pNP release, absorbance […] nm; fit with transglycosylation; conditions: 25 °C, pH 5.0, 50 mM sodium acetate; hydrolysis constant, substrate inhibition by transglycosylation; read-out: KM(h)

Km [1]: 0.29 ± 0.07 mM
Compound: OC[C@H]1O[C@@H](O[C@H]2[C@H](O)[C@@H](O)C(O)O[C@@H]2CO)[C@H](O)[C@@H](O)[C@@H]1O (stereo partly drawn) [cellobiose]

Ki [2]: 220 µM
Compound: OC[C@H]1OC(O)[C@H](O)[C@@H](O)[C@@H]1O (stereo partly drawn) [glucose]

Km [3]: 95 ± 3 µM
Compound: O=[N+]([O-])c1ccc(O[C@@H]2O[C@H](CO)[C@@H](O)[C@H](O)[C@H]2O)cc1 [para-nitrophenyl-β-glucoside]
